The test system of this experiment is SARS-CoV-2. Format: cell-based.

As for `O=C(Oc1cncc(Cl)c1)c1cccc2c1CCN2` [CTRL-1720S], the “block of the cytopathic effect (CPE) of SARS-CoV-2” value is recorded as “significantly block the cytopathic effect”.
As for `COc1cccc2[nH]c(C(=O)N[C@@H](CC(C)C)C(=O)N[C@@H](C[C@@H]3CCNC3=O)C(=O)c3nc4ccccc4s3)cc12` [GRL-2420S], the entry is “significantly block the cytopathic effect”.

Values taken from patent US20230159516A1 (priority 2020, published 2023).
